For 31 molecules, EC50 results are on record in BindingDB's records for doi:10.7270/Q2M32T6M (Vanderbilt Screening Center for GPCRs, Ion Channels and …, 2009).

A word on the EC50: it is the concentration giving half of the maximal effect.

Non-standard residues stand in square brackets, D forms with d. Residues, ends and D or L forms follow the SMILES beside them. ξ: configuration not given here. *: point of attachment. ξF = NC(Cc1ccccc1)C(=O)O; Cbz = O=C(OCc1ccccc1)*

The first test addresses T1, Solute carrier family 12 member 5 (Homo sapiens, UniProt Q9H2X9).
T1 sequence (Q9H2X9 whole entry): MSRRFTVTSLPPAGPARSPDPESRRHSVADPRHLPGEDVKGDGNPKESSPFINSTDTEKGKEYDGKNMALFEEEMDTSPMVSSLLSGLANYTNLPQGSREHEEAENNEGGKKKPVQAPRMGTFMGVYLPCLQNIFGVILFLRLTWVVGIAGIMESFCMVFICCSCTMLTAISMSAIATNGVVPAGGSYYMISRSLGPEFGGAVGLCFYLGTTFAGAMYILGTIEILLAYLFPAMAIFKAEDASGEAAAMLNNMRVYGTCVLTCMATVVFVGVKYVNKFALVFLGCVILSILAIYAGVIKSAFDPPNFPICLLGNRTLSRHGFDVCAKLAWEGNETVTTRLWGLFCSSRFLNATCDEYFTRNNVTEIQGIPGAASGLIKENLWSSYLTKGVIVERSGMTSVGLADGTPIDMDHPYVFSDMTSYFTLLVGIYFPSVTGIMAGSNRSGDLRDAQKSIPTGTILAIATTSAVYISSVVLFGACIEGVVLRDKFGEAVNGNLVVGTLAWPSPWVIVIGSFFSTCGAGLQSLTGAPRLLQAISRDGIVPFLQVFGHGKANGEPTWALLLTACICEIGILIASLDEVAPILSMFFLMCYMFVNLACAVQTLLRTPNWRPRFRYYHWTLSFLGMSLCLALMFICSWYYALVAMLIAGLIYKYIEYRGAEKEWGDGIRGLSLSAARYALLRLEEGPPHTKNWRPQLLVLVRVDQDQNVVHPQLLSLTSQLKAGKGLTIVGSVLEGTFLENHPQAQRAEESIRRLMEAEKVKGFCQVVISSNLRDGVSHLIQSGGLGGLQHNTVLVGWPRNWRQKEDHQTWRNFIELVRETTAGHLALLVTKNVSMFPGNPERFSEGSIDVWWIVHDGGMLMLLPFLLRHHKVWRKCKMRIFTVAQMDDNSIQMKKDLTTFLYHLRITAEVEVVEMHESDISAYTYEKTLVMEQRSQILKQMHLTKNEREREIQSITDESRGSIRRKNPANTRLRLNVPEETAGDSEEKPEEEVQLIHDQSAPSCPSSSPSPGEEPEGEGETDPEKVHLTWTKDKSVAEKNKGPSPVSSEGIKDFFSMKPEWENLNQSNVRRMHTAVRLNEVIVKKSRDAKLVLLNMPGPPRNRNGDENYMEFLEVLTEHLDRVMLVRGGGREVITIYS
Nature of the test: KCC2 modulator potency by thallium flux, dose response, cell-based, HEK293 KCC2, FluoZin-2 fluorescence (AID 1736).
Conditions: not given
Consider `O=C(Cn1cnc2c(nnn2Cc2ccc(F)cc2)c1=O)NCc1ccc2c(c1)OCO2` [2-[3-(4-fluorobenzyl)-7-keto-triazolo[4,5-d]pyrimidin-6-yl]-N-piperonyl-acetamide], for which the 50% effective concentration (EC50) was found to be 1.48 µM.

Take `O=[N+]([O-])c1cc(-n2c(O)c3c(c2O)CCCC3)ccc1NC1CCN(Cc2ccccc2)CC1` [2-[3-nitro-4-[[1-(phenylmethyl)-4-piperidinyl]amino]phenyl]-3a,4,5,6,7,7a-hexahydroisoindole-1,3-dione]: the EC50 was 28.1 µM.

Molecule `Cc1cccc(OCc2nnc(SCC(=O)c3cccs3)n2C)c1C` [2-[5-(2,3-Dimethyl-phenoxymethyl)-4-methyl-4H-[1,2,4]triazol-3-ylsulfanyl]-1-thiophen-2-yl-ethanone] registered an EC50 of 9.24 µM. Compared with the last molecule, the EC50 is about 3-fold lower.

As to `O=C(CSc1nnc(-c2ccc(F)cc2)o1)N1CCN(C(=O)c2ccco2)CC1` [2-[5-(4-Fluoro-phenyl)-[1,3,4]oxadiazol-2-ylsulfanyl]-1-[4-(furan-2-carbonyl)-piperazin-1-yl]-ethanone], the EC50 amounted to 5.32 µM.

For `CC1CCCCN1C(=O)CSc1ccc(-c2ccc(F)cc2)nn1` (stereo unspecified) [2-[6-(4-Fluoro-phenyl)-pyridazin-3-ylsulfanyl]-1-(2-methyl-piperidin-1-yl)-ethanone], a half-maximal effect (EC50) was put at 3.78 µM.

In turn, `CC1CCN(C(=O)CSc2ccc(-c3ccc(F)cc3)nn2)CC1` [2-[6-(4-Fluoro-phenyl)-pyridazin-3-ylsulfanyl]-1-(4-methyl-piperidin-1-yl)-ethanone] returned an EC50 of 4.35 µM. The EC50 values of the last two molecules are within 1.5-fold of each other.

`Cc1ccc(NC(=O)CSc2ccc(-c3ccco3)nn2)cc1` [2-[6-(furan-2-yl)pyridazin-3-yl]sulfanyl-N-(4-methylphenyl)acetamide] gave an EC50 of 4.55 µM.

`CCC(Cc1ccccc1)NC(=O)CN(C)S(=O)(=O)c1ccc2c(c1)c(=O)n(C)c(=O)n2C` (stereo unspecified) [2-[(1,3-dimethyl-2,4-dioxo-6-quinazolinyl)sulfonyl-methylamino]-N-(1-phenylbutan-2-yl)acetamide] yielded an EC50 of 7.75 µM.

As to `Cc1[nH]c2ccccc2c1SCC(=O)N1CCN(c2ccccc2)CC1` [2-[(2-methyl-1H-indol-3-yl)thio]-1-(4-phenyl-1-piperazinyl)ethanone], the EC50 amounted to 5.46 µM.

Molecule `Cc1ccc(/C=C2/Sc3ccccc3N(CC(=O)NCCCOC(C)C)C2=O)cc1` [2-[(2E)-2-[(4-methylphenyl)methylidene]-3-oxidanylidene-1,4-benzothiazin-4-yl]-N-(3-propan-2-yloxypropyl)ethanamide] displayed a half-maximal effective concentration (EC50) of 21.1 µM.

In turn, `COc1ccc(S(=O)(=O)N(CCc2ccccc2)CC(=O)O)cc1Cl` [2-[(3-chloranyl-4-methoxy-phenyl)sulfonyl-(2-phenylethyl)amino]ethanoic acid] had a 50% effective concentration (EC50) of 11.9 µM.

`O=C(NCCOc1ccccc1F)c1ccccc1SCc1ccc(F)cc1` [2-[(4-fluorobenzyl)thio]-N-[2-(2-fluorophenoxy)ethyl]benzamide]: the EC50 is 0.717 µM.

`Cc1ccc(NC(=O)c2ccccc2NS(=O)(=O)c2ccc(Cl)s2)cc1` [2-[(5-chloranylthiophen-2-yl)sulfonylamino]-N-(4-methylphenyl)benzamide] displayed a half-maximal effective concentration (EC50) of 1.07 µM. This EC50 and that of the molecule before are within 1.5-fold of each other.

The molecule `N#Cc1c(NC(=O)CSc2nc(N)cc(=O)[nH]2)sc2c1CCCCCC2` [2-[(6-amino-4-oxo-1H-pyrimidin-2-yl)sulfanyl]-N-(3-cyano-4,5,6,7,8,9-hexahydrocycloocta[b]thiophen-2-yl)acetamide] registered an EC50 of 233 µM.

`CCOC(=O)CNC(=O)C(Cc1ccccc1)NC(=O)OCc1ccccc1` (stereo unspecified) [2-[[1-oxo-3-phenyl-2-(phenylmethoxycarbonylamino)propyl]amino]acetic acid ethyl ester] (Cbz-[ξF]-Gly-OEt) had an EC50 of 2.16 µM.

With `Cc1ccc(Cn2c(SCC(=O)Nc3cc(C)on3)nc3ccccc3c2=O)cc1` [2-[[4-keto-3-(4-methylbenzyl)quinazolin-2-yl]thio]-N-(5-methylisoxazol-3-yl)acetamide], the concentration giving a half-maximal response (EC50) is 65.1 µM.

Turning to `Cc1ccccc1-c1nc(C[S+]([O-])CC(=O)NCc2ccccc2)c(C)o1` (stereo unspecified) [2-[[5-methyl-2-(2-methylphenyl)-1,3-oxazol-4-yl]methylsulfinyl]-N-(phenylmethyl)ethanamide], the midpoint of the response, the EC50, lay at 8.09 µM.

Molecule `Cc1ccccc1-c1nc(CS(=O)(=O)CC(=O)NCc2ccccc2)c(C)o1` [2-[[5-methyl-2-(2-methylphenyl)-1,3-oxazol-4-yl]methylsulfonyl]-N-(phenylmethyl)ethanamide] displayed an EC50 of 110 µM.

`COc1ccc(-c2cc(CNC(=O)CN(C)Cc3ccccc3)on2)cc1` [2-[benzyl(methyl)amino]-N-[[3-(4-methoxyphenyl)-1,2-oxazol-5-yl]methyl]acetamide] returned a concentration giving a half-maximal response (EC50) of 24.6 µM.

In turn, `CC(=O)NC(C)C(=O)OCC(=O)c1ccc(-c2ccccc2)cc1` (stereo unspecified) [2-acetamidopropanoic acid [2-oxo-2-(4-phenylphenyl)ethyl] ester] gave an EC50 of 13.7 µM.

In the case of `N#CC1=C(SCc2ccccc2)N=C(N)C(C#N)C12CCCCC2` (stereo unspecified) [2-azanyl-4-(phenylmethylsulfanyl)-3-azaspiro[5.5]undeca-1,4-diene-1,5-dicarbonitrile], a half-maximal effect (EC50) was put at 11.9 µM.

Molecule `CN(Cc1ccccc1)S(=O)(=O)c1ccc(Cl)c(C(=O)NCCc2ccccn2)c1` [2-chloranyl-5-[methyl-(phenylmethyl)sulfamoyl]-N-(2-pyridin-2-ylethyl)benzamide] registered a concentration for a half-maximal effect (EC50) of 0.384 µM.

For the molecule `Cc1ccc(-c2csc(NC(=O)CCNC(=O)c3ccccc3Cl)n2)cc1` [2-chloranyl-N-[3-[[4-(4-methylphenyl)-1,3-thiazol-2-yl]amino]-3-oxidanylidene-propyl]benzamide], a half-maximal response (EC50) required 2.03 µM.

`O=C(NC(=S)Nc1nc(-c2cccc([N+](=O)[O-])c2)cs1)c1ccccc1Cl` [2-chloranyl-N-[[4-(3-nitrophenyl)-1,3-thiazol-2-yl]carbamothioyl]benzamide]: the half-maximal effective concentration (EC50) was found to be 7.48 µM. Against the preceding molecule, the EC50 is about 3.7-fold higher.

`COc1ccccc1C(=O)NC1CCN(C(=S)NCCc2ccccc2)CC1` [2-methoxy-N-[1-(2-phenylethylcarbamothioyl)piperidin-4-yl]benzamide] gave an EC50 of 4.22 µM.

Still in this test, the particulars now being: inactive by the depositor's call.
On to `CC(C)CC(c1nnnn1Cc1cccs1)N1CCN(c2nc3ccccc3s2)CC1` (stereo unspecified) [2-[4-[3-methyl-1-[1-(2-thenyl)tetrazol-5-yl]butyl]piperazino]-1,3-benzothiazole], for which the half-maximal effective concentration (EC50) worked out at 46.4 µM. This counts as double-digit micromolar.

`N#Cc1nc(COc2ccccc2F)oc1NCc1ccc(F)cc1` [2-[(2-fluoranylphenoxy)methyl]-5-[(4-fluorophenyl)methylamino]-1,3-oxazole-4-carbonitrile] registered an EC50 of 1.86 µM.

Turning to `O=C(CSc1nc2cc(Cl)ccc2s1)Nc1cccc(S(=O)(=O)N2CCOCC2)c1` [2-[(5-chloranyl-1,3-benzothiazol-2-yl)sulfanyl]-N-(3-morpholin-4-ylsulfonylphenyl)ethanamide], the EC50 turned out to be 25.1 µM.

With `N=C1SCC(=O)N1c1ncc(Cc2cccc(Cl)c2)s1` [2-azanylidene-3-[5-[(3-chlorophenyl)methyl]-1,3-thiazol-2-yl]-1,3-thiazolidin-4-one], the concentration for a half-maximal effect (EC50) came to 3.13 µM.

On to `C=CCN(c1ccc(OC)cc1)S(=O)(=O)c1ccc(Cl)c(C(=O)OCC(=O)NC2CC2)c1` [2-chloro-5-[(4-methoxyphenyl)-prop-2-enylsulfamoyl]benzoic acid [2-(cyclopropylamino)-2-oxoethyl] ester], for which a half-maximal effect (EC50) was put at 6.31 µM. This EC50 is about 2-fold higher than that of the molecule before.

In turn, `c1coc(CNc2nc3nonc3nc2NCc2ccco2)c1` [2-furfuryl-[5-(2-furfurylamino)furazano[3,4-b]pyrazin-6-yl]amine] yielded an EC50 of 43.7 µM.
